Columns and labels:
[1] = Biodistribution of the 99mTc(N) heterocomplexes in rats (organ uptake, heart accumulation, heart/lung and heart/liver ratios); assay type: in vivo, female Sprague-Dawley rats
In short: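 Female Sprague-Dawley rats (200–250 g, n=3), ketamine/xylazine anaesthesia, got 300–370 kBq of each purified heterocomplex in pH 7.4 phosphate buffer (10% ethanol) via the jugular vein. They were killed at several post-injection times. Heart blood and washed, weighed organs were gamma-counted, taking whole blood as 6.5% of body weight.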

[2] = Stability: ligand exchange reaction with cysteine or glutathione; assay type: physicochemical; conditions: phosphate buffer pH 7.4, 37° C., up to 2 hours, TLC
Procedure: The stability of the ^99mTc(N) heterocomplexes obtained using PNP3 as a bisphosphinoamine compound in Example 1 was confirmed by ligand exchange reaction with cysteine or glutathione.
250.0 μL of phosphate buffer solution (0.20 M, pH=7.4), 100 μL of water and 100 μL of each of the ^99mTc(N) heterocomplexes purified were mixed with 50 μL of each of cysteine solutions having different concentrations of 10 mM and 1.0 mM, and the resulting mixture was placed in a polypropylene test tube and incubated in a thermostat at 37° C. A blank solution was obtained by mixing an equal volume of water without addition of cysteine. Aliquots of the resulting solutions were withdrawn at 15 min, 30 min, 60 min and 2 hours after the start of the incubation, and analyzed by TLC. The same experiment as above was carried out except for using glutathione in place of cysteine. All the ^99mTc(N) heterocomplex samples were found stable against transchelation by cystein or glutathione.

[3] = Measurement of Log k′ (partition ratio) by HPLC, PNP3 heterocomplexes; assay type: physicochemical; conditions: HPLC C18, methanol/phosphate buffer (0.02M, pH 7.4), 1.0 mL/min; extrapolated to 0% organic solvent
Procedure: For the various ^99mTc(N) heterocomplexes synthesized using PNP3 as a bisphosphinoamine compound in Example 1, Log k′ values were determined at various compositions of a mobile phase for HPLC. As the mobile phase, mixtures of methanol and phosphate buffer (0.02M, pH=7.4) were used at a flow rate of 1.0 mL/min. For each sample, the retention time was measured at a minimum of three different methanol concentrations in the mobile phase. The Log k′ values at 0% organic solvent (Log k′0) were extrapolated from the linear part of the curve Log k′=a+bC, where C is the methanol concentration, and Log k′ is Log (tR-to)/to wherein tR is HPLC retension time (min). The column void time (t0) was regarded as being equal to the elution time of pertechnetic acid.

Biodistribution in rats: Adrenal glands ([1]; 0 min post injection): 1.65 ± 0.22 % ID/g
Biodistribution in rats: Blood ([1]; 0 min post injection): 1.36 ± 0.02 % ID/g
Biodistribution in rats: Brain ([1]; 0 min post injection): 0.20 ± 0.02 % ID/g
Biodistribution in rats: Heart ([1]; 0 min post injection): 3.08 ± 0.31 % ID/g
Biodistribution in rats: Intestine ([1]; 0 min post injection): 3.25 ± 0.60 % ID/g
Biodistribution in rats: Kidneys ([1]; 0 min post injection): 6.36 ± 0.13 % ID/g
Biodistribution in rats: Liver ([1]; 0 min post injection): 3.48 ± 0.24 % ID/g
Biodistribution in rats: Lungs ([1]; 0 min post injection): 1.45 ± 0.04 % ID/g
Biodistribution in rats: Muscle ([1]; 0 min post injection): 0.27 ± 0.02 % ID/g
Biodistribution in rats: Spleen ([1]; 0 min post injection): 1.23 ± 0.01 % ID/g
Biodistribution in rats: Submaxillary glands ([1]; 0 min post injection): 2.27 ± 0.20 % ID/g
Biodistribution in rats: Adrenal glands ([1]; 2 min post injection): 0.98 ± 0.12 % ID/g
Biodistribution in rats: Blood ([1]; 2 min post injection): 0.30 ± 0.09 % ID/g
Biodistribution in rats: Brain ([1]; 2 min post injection): 0.02 ± 0.00 % ID/g
Biodistribution in rats: Heart ([1]; 2 min post injection): 2.06 ± 0.13 % ID/g
Biodistribution in rats: Intestine ([1]; 2 min post injection): 4.30 ± 1.74 % ID/g
Biodistribution in rats: Kidneys ([1]; 2 min post injection): 8.21 ± 0.62 % ID/g
Biodistribution in rats: Liver ([1]; 2 min post injection): 3.71 ± 0.36 % ID/g
Biodistribution in rats: Lungs ([1]; 2 min post injection): 0.65 ± 0.06 % ID/g
Biodistribution in rats: Muscle ([1]; 2 min post injection): 0.25 ± 0.04 % ID/g
Biodistribution in rats: Spleen ([1]; 2 min post injection): 0.51 ± 0.04 % ID/g
Biodistribution in rats: Submaxillary glands ([1]; 2 min post injection): 1.22 ± 0.11 % ID/g
Biodistribution in rats: Adrenal glands ([1]; 10 min post injection): 1.49 ± 0.82 % ID/g
Biodistribution in rats: Blood ([1]; 10 min post injection): 0.21 ± 0.00 % ID/g
Biodistribution in rats: Brain ([1]; 10 min post injection): 0.01 ± 0.00 % ID/g
Biodistribution in rats: Heart ([1]; 10 min post injection): 2.37 ± 0.33 % ID/g
Biodistribution in rats: Intestine ([1]; 10 min post injection): 4.36 ± 2.28 % ID/g
Biodistribution in rats: Kidneys ([1]; 10 min post injection): 6.82 ± 3.62 % ID/g
Biodistribution in rats: Liver ([1]; 10 min post injection): 3.49 ± 0.09 % ID/g
Biodistribution in rats: Lungs ([1]; 10 min post injection): 0.67 ± 0.23 % ID/g
Biodistribution in rats: Muscle ([1]; 10 min post injection): 0.29 ± 0.08 % ID/g
Biodistribution in rats: Spleen ([1]; 10 min post injection): 0.57 ± 0.22 % ID/g
Biodistribution in rats: Submaxillary glands ([1]; 10 min post injection): 1.70 ± 0.60 % ID/g
Biodistribution in rats: Adrenal glands ([1]; 20 min post injection): 1.46 ± 0.15 % ID/g
Biodistribution in rats: Blood ([1]; 20 min post injection): 0.08 ± 0.02 % ID/g
Biodistribution in rats: Brain ([1]; 20 min post injection): 0.01 ± 0.00 % ID/g
Biodistribution in rats: Heart ([1]; 20 min post injection): 2.49 ± 0.31 % ID/g
Biodistribution in rats: Intestine ([1]; 20 min post injection): 14.47 ± 4.75 % ID/g
Biodistribution in rats: Kidneys ([1]; 20 min post injection): 5.63 ± 2.05 % ID/g
Biodistribution in rats: Liver ([1]; 20 min post injection): 1.86 ± 0.47 % ID/g
Biodistribution in rats: Lungs ([1]; 20 min post injection): 0.43 ± 0.05 % ID/g
Biodistribution in rats: Muscle ([1]; 20 min post injection): 0.39 ± 0.12 % ID/g
Biodistribution in rats: Spleen ([1]; 20 min post injection): 0.38 ± 0.04 % ID/g
Biodistribution in rats: Submaxillary glands ([1]; 20 min post injection): 1.38 ± 0.07 % ID/g
Biodistribution in rats: Adrenal glands ([1]; 30 min post injection): 1.31 ± 0.19 % ID/g
Biodistribution in rats: Blood ([1]; 30 min post injection): 0.04 ± 0.00 % ID/g
Biodistribution in rats: Brain ([1]; 30 min post injection): 0.01 ± 0.00 % ID/g
Biodistribution in rats: Heart ([1]; 30 min post injection): 2.57 ± 0.06 % ID/g
Biodistribution in rats: Intestine ([1]; 30 min post injection): 11.78 ± 1.78 % ID/g
Biodistribution in rats: Kidneys ([1]; 30 min post injection): 4.88 ± 0.56 % ID/g
Biodistribution in rats: Liver ([1]; 30 min post injection): 1.30 ± 0.71 % ID/g
Biodistribution in rats: Lungs ([1]; 30 min post injection): 0.41 ± 0.04 % ID/g
Biodistribution in rats: Muscle ([1]; 30 min post injection): 0.32 ± 0.08 % ID/g
Biodistribution in rats: Spleen ([1]; 30 min post injection): 0.37 ± 0.00 % ID/g
Biodistribution in rats: Submaxillary glands ([1]; 30 min post injection): 1.53 ± 0.17 % ID/g
Biodistribution in rats: Adrenal glands ([1]; 60 min post injection): 1.17 ± 0.17 % ID/g
Biodistribution in rats: Blood ([1]; 60 min post injection): 0.02 ± 0.01 % ID/g
Biodistribution in rats: Brain ([1]; 60 min post injection): 0.01 ± 0.00 % ID/g
Biodistribution in rats: Heart ([1]; 60 min post injection): 2.26 ± 0.60 % ID/g
Biodistribution in rats: Intestine ([1]; 60 min post injection): 11.05 ± 5.05 % ID/g
Biodistribution in rats: Kidneys ([1]; 60 min post injection): 3.44 ± 0.76 % ID/g
Biodistribution in rats: Liver ([1]; 60 min post injection): 0.42 ± 0.23 % ID/g
Biodistribution in rats: Lungs ([1]; 60 min post injection): 0.27 ± 0.09 % ID/g
Biodistribution in rats: Muscle ([1]; 60 min post injection): 0.27 ± 0.04 % ID/g
Biodistribution in rats: Spleen ([1]; 60 min post injection): 0.18 ± 0.10 % ID/g
Biodistribution in rats: Submaxillary glands ([1]; 60 min post injection): 1.33 ± 0.46 % ID/g
Biodistribution in rats: Adrenal glands ([1]; 120 min post injection): 1.14 ± 0.15 % ID/g
Biodistribution in rats: Blood ([1]; 120 min post injection): 0.01 ± 0.00 % ID/g
Biodistribution in rats: Brain ([1]; 120 min post injection): 0.01 ± 0.00 % ID/g
Biodistribution in rats: Heart ([1]; 120 min post injection): 2.45 ± 0.41 % ID/g
Biodistribution in rats: Intestine ([1]; 120 min post injection): 16.10 ± 2.10 % ID/g
Biodistribution in rats: Kidneys ([1]; 120 min post injection): 3.43 ± 0.38 % ID/g
Biodistribution in rats: Liver ([1]; 120 min post injection): 0.16 ± 0.04 % ID/g
Biodistribution in rats: Lungs ([1]; 120 min post injection): 0.20 ± 0.04 % ID/g
Biodistribution in rats: Muscle ([1]; 120 min post injection): 0.36 ± 0.12 % ID/g
Biodistribution in rats: Spleen ([1]; 120 min post injection): 0.14 ± 0.03 % ID/g
Biodistribution in rats: Submaxillary glands ([1]; 120 min post injection): 1.36 ± 0.14 % ID/g
Stability [2]: Stable
Log k′ (partition ratio) [3]: 3.18
Structure (SMILES): COCCC[P]1(CCCOC)CCN(CCOC)CC[P](CCCOC)(CCCOC)[99Tc+]12(#[N])[S]C(N(CCOC)CCOC)=[S]2 [[^99mTc(N) (PNP3) (DPODC)]^+]

Source: US7445765B2, “Radiopharmaceutical for diagnostic imaging containing a technetium-99m nitride heterocomplex” (Nihon Medi-Physics Co., Ltd., priority 2000, dated 2008)
